Assay results published in patent US11078250B2, “High-activity long-acting hypoglycemic fusion protein as well as preparation method and medical application thereof” (China Pharmaceutical University, priority 2016, dated 2021).
Values joined by “and” are separate entries in the source; they are usually repeats but may differ in a detail not shown here. Identical values can stand only once.

Columns and labels:
[1] = system: type II diabetic mice C57BL/KsJ-db/db (BKS.Cg-Dock7m+/+Leprdb/JNju); test: Acute hypoglycemic test in type II diabetic model mice; type: in vivo, mouse
Procedure: (§1) 50 six-week-old type II diabetic mice C57BL/KsJ-db/db (namely, S.Cg-Dock7^m+/+Lepr^db/JNju mouse) and 10 control mice C57BLKS/JNju are purchased from Nanjing Biomedical Research Institute of Nanjing University (certificate number: 201602819, and license number: SCXK (Su) 2015-0001). The mouse are fed in a SPF-grade animal house with a humidity of 40-60% at room temperature of 25° C. for 12 h each under light and dark conditions, and an experiment is carried out after adaptive feeding for one week. Blood glucose concentration is measured using a Roche Accu-Chek® Performa glucometer and blood glucose test paper. Experiment grouping and administration modes are seen in Table 1.
Blood glucose levels of each group of mouse are detected before administration. As shown in Table 2 and FIG. 7, blood glucose levels of a model group, Ex-4, EX-mhIgG1Fc and EX-L21K-mhIgG1Fc (5-20 nmol/kg) are respectively 24±0.81, 24.53±1.20, 23.31±1.05, 23.04±1.23, 22.41±1.51 and 24.99±1.43 mM. There is a significant difference (P<0.0001) compared with 8.58±0.25 mM in a normal control group. […] Moreover, there is no difference between the drug groups and the model group, and subsequent experiments can be carried out.
After mouse are administrated, blood glucose levels after administration for 1, 2, 4, 8, 12, 24, 36, 48, 60, 72, 96 and 120 h are continuously monitored. […] The blood glucoses of mouse in Ex-4 group are gradually raised back to a level before administration, and the blood glucoses of mouse in EX-mhIgG1Fc group are gradually raised back to a level before administration after administration for 48 h. The hypoglycemic effects of various dosage group of EX-L21K-mhIgG1Fc are more durable, wherein, the hypoglycemic effect of 5 nmol/kg EX-L21K-mhIgG1Fc lasts until 72 h after administration (P<0.01 vs model group), the hypoglycemic effects of 10 nmol/kg EX-L21K-mhIgG1Fc (P<0.01 vs model group) and 20 nmol/kg EX-L21K-mhIgG1Fc (P<0.0001 vs model group) are still present after administration for 96 h.
Compared with Ex-4, AUCs0-24 h of various groups of EX-mhIgG1Fc and EX-L21K-mhIgG1Fc (5-20 nmol/kg) drugs has no significant difference.

[2] = system: type II diabetic mice C57BL/KsJ-db/db (BKS.Cg-Dock7m+/+Leprdb/JNju); test: Intraperitoneal glucose tolerance test (IPGTT); type: in vivo, mouse; details: for IPGTT glucose AUC0-180 min: n=8, mean ± SEM; for Fasting blood glucose vs model group: fasted 18 h, Ex-4 and EX-mhIgG1Fc 10 nmol/kg, EX-L21K-mhIgG1Fc 5-20 nmol/kg, ip, P<0.0001
Procedure: as §1
Various groups of animals are fasted overnight for 18 h before test. Firstly, normal saline, Ex-4, EX-mhIgG1Fc and EX-L21K-mhIgG1Fc are respectively intraperitoneally injected. After administration for 2 h, 1.5 g/kg glucose is intraperitoneally injected to each mouse, blood is taken via caudal vein, and blood glucose concentrations in −120, 0, 15, 30, 45, 60, 90, 120 and 180 min are recorded. During the test, animals are normally dieted and supplied with water.
Area under the curve is further applied for analysis.

[3] = cited from earlier work
[4] = 0 h (before administration), 10 nmol/kg ip, n=8, mean ± SEM
[5] = 1 h after administration, 10 nmol/kg ip
[6] = 2 h after administration, 10 nmol/kg ip
[7] = 4 h after administration, 10 nmol/kg ip
[8] = 8 h after administration, 10 nmol/kg ip
[9] = 12 h after administration, 10 nmol/kg ip
[10] = 24 h after administration, 10 nmol/kg ip
[11] = 36 h after administration, 10 nmol/kg ip
[12] = 48 h after administration, 10 nmol/kg ip
[13] = 60 h after administration, 10 nmol/kg ip
[14] = 72 h after administration, 10 nmol/kg ip
[15] = 96 h after administration, 10 nmol/kg ip
[16] = 120 h after administration, 10 nmol/kg ip
[17] = Ex-4 and EX-mhIgG1Fc 10 nmol/kg, EX-L21K-mhIgG1Fc 5-20 nmol/kg, ip
[18] = 10 nmol/kg ip 120 min before 1.5 g/kg glucose ip

Question: What does the source list for “EX-L21K-mhIgG1Fc: fusion protein of Exendin-4 mutant EX-L21K, Gly-rich linker peptide, optimally mutated human IgG1 hinge region and constant regions CH2 and CH3; SEQ ID NO: 11”?
Answer: Blood glucose ([1]; 0 h (before administration), 5 nmol/kg ip, n=8, mean ± SEM): 23.04 ± 1.23 mM and 23.04 mM; Blood glucose [1, 4]: 22.41 ± 1.51 mM and 22.41 mM; Blood glucose ([1]; 0 h (before administration), 20 nmol/kg ip, n=8, mean ± SEM): 24.99 ± 1.43 mM and 24.99 mM; Time after administration to which hypoglycemic effect lasts ([1]; 5 nmol/kg ip, P<0.01 vs model group): 72 h; Blood glucose AUC0-24 h ([1]; 5 nmol/kg ip, n=8, mean ± SEM): 296.69 ± 34.39 mM·h; Time after administration to which hypoglycemic effect lasts ([1]; 10 nmol/kg ip): ≥ 96 h; Blood glucose AUC0-24 h ([1]; 10 nmol/kg ip, n=8, mean ± SEM): 237.34 ± 16.87 mM·h; Time after administration to which hypoglycemic effect lasts ([1]; 20 nmol/kg ip, P<0.0001 vs model group): ≥ 96 h; Blood glucose AUC0-24 h ([1]; 20 nmol/kg ip, n=8, mean ± SEM): 230.80 ± 20.09 mM·h; Time after administration to which hypoglycemic effect lasts ([1]; 5-20 nmol/kg ip): 96 h; Blood glucose ([1]; 1 h after administration, 5 nmol/kg ip): 15.18 mM; Blood glucose [1, 5]: 15.2 mM; Blood glucose ([1]; 1 h after administration, 20 nmol/kg ip): 14.98 mM; Blood glucose ([1]; 2 h after administration, 5 nmol/kg ip): 11.28 mM; Blood glucose [1, 6]: 14.3 mM; Blood glucose ([1]; 2 h after administration, 20 nmol/kg ip): 12.46 mM; Blood glucose ([1]; 4 h after administration, 5 nmol/kg ip): 9.16 mM; Blood glucose [1, 7]: 8.48 mM; Blood glucose ([1]; 4 h after administration, 20 nmol/kg ip): 9.54 mM; Blood glucose ([1]; 8 h after administration, 5 nmol/kg ip): 9.91 mM; Blood glucose [1, 8]: 8.01 mM; Blood glucose ([1]; 8 h after administration, 20 nmol/kg ip): 8.73 mM; Blood glucose ([1]; 12 h after administration, 5 nmol/kg ip): 13.06 mM; Blood glucose [1, 9]: 10.13 mM; Blood glucose ([1]; 12 h after administration, 20 nmol/kg ip): 53 mM; Blood glucose ([1]; 24 h after administration, 5 nmol/kg ip): 13.58 mM; Blood glucose [1, 10]: 8.5 mM; Blood glucose ([1]; 24 h after administration, 20 nmol/kg ip): 7.49 mM; Blood glucose ([1]; 36 h after administration, 5 nmol/kg ip): 17.34 mM; Blood glucose [1, 11]: 12.9 mM; Blood glucose ([1]; 36 h after administration, 20 nmol/kg ip): 11.95 mM; Blood glucose ([1]; 48 h after administration, 5 nmol/kg ip): 16.46 mM; Blood glucose [1, 12]: 12.96 mM; Blood glucose ([1]; 48 h after administration, 20 nmol/kg ip): 12.2 mM; Blood glucose ([1]; 60 h after administration, 5 nmol/kg ip): 22.39 mM; Blood glucose [1, 13]: 21.36 mM; Blood glucose ([1]; 60 h after administration, 20 nmol/kg ip): 21.5 mM; Blood glucose ([1]; 72 h after administration, 5 nmol/kg ip): 18.85 mM; Blood glucose [1, 14]: 17.4 mM; Blood glucose ([1]; 72 h after administration, 20 nmol/kg ip): 14.1 mM; Blood glucose ([1]; 96 h after administration, 5 nmol/kg ip): 18.71 mM; Blood glucose [1, 15]: 17.33 mM; Blood glucose ([1]; 96 h after administration, 20 nmol/kg ip): 14.46 mM; Blood glucose ([1]; 120 h after administration, 5 nmol/kg ip): 23.35 mM; Blood glucose [1, 16]: 22.96 mM; Blood glucose ([1]; 120 h after administration, 20 nmol/kg ip): 22.76 mM; Blood glucose AUC0-72 h compared with model group [1, 17]: significantly reduced; Blood glucose AUC0-120 h compared with model group [1, 17]: significantly reduced; IPGTT glucose AUC0-180 min ([2]; 5 nmol/kg ip 120 min before 1.5 g/kg glucose ip): 2338 ± 181.2 mM·min; IPGTT glucose AUC0-180 min [2, 18]: 2035 ± 169.6 mM·min; IPGTT glucose AUC0-180 min ([2]; 20 nmol/kg ip 120 min before 1.5 g/kg glucose ip): 2082 ± 119.9 mM·min; Fasting blood glucose vs model group [2]: significantly reduced

Question: For Exendin-4 [Ex-4, reference compound], which Blood glucose [1, 4] is on record?
Answer: 24.53 ± 1.20 mM and 24.53 mM

Question: And the “Blood glucose AUC0-24 h” value ([1]; 10 nmol/kg ip, n=8, mean ± SEM)?
Answer: 374.46 ± 6.20 mM·h

Question: And the Blood glucose [1, 5]?
Answer: 10.63 mM

Question: What about the Blood glucose [1, 6] of the same substance?
Answer: 10.79 mM

Question: And the Blood glucose [1, 7]?
Answer: 10.71 mM

Question: What about the Blood glucose [1, 8] of the same substance?
Answer: 15.31 mM

Question: What about the Blood glucose [1, 9] of the same substance?
Answer: 24.43 mM

Question: What about the Blood glucose [1, 10] of the same substance?
Answer: 20.48 mM

Question: What about the Blood glucose [1, 11] of the same substance?
Answer: 26.59 mM

Question: And the Blood glucose [1, 12]?
Answer: 24.76 mM

Question: And the Blood glucose [1, 13]?
Answer: 27.19 mM

Question: What about the Blood glucose [1, 14] of the same substance?
Answer: 25.34 mM

Question: What about the Blood glucose [1, 15] of the same substance?
Answer: 23.68 mM

Question: And the Blood glucose [1, 16]?
Answer: 24.83 mM

Question: What about the “Blood glucose AUC0-72 h compared with model group” value [1, 17] of the same substance?
Answer: no significant change

Question: What about the “Blood glucose AUC0-120 h compared with model group” value [1, 17] of the same substance?
Answer: no significant change

Question: What about the “Time after administration at which hypoglycemic effect is exhibited” value [1, 17] of the same substance?
Answer: 1 h

Question: What about the in-vivo half-life period [3] of the same substance?
Answer: 3.3˜4 hours

Question: What about the “IPGTT glucose AUC0-180 min” value [2, 18] of the same substance?
Answer: 2058 ± 109.5 mM·min

Question: What about the “Fasting blood glucose vs model group” value [2] of the same substance?
Answer: significantly reduced
